Literature values in article PMC5600712 (ACS chemical biology, 2017).

What was measured:
class I HDACs = conditions: class I compared with class II HDACs
proteasome = conditions: α,β-epoxyketone proteasome inhibitor

Compound: HC toxin
- selectivity of binding, class I versus class II HDACs (class I HDACs): tighter binding of these inhibitors to class I HDACs

Compound: CC(C)C[C@H](NC(=O)[C@H](CCc1ccccc1)NC(=O)CN1CCOCC1)C(=O)N[C@@H](Cc1ccccc1)C(=O)N[C@@H](CC(C)C)C(=O)[C@@]1(C)CO1 [carfilzomib]
- covalent adduct formation with proteasome (proteasome): forms a covalent adduct to block proteasome function
